According to patent publication US20130197059A1, “INTEGRIN ANTAGONIST CONJUGATES FOR TARGETED DELIVERY TO CELLS EXPRESSING LFA-1” (Hoffmann-La Roche Inc., priority 2012, published 2013):
pIC50: −log10 of the molar value. Where two headings read alike, the source gives them in different places.

Assays:
sLFA-1/ICAM-1 = molecular target: T1, sLFA-1/ICAM-1 (Homo sapiens, UniProt P05107+P20701); experiment: sLFA-1/ICAM-1 ELISA (LFA1 Adhesion Assay); format: binding
T1 construct: 2.0 ug/ml solution of sLFA-1 or Mac-1 receptor
T1 sequence (P20701 26-1090 limits assumed): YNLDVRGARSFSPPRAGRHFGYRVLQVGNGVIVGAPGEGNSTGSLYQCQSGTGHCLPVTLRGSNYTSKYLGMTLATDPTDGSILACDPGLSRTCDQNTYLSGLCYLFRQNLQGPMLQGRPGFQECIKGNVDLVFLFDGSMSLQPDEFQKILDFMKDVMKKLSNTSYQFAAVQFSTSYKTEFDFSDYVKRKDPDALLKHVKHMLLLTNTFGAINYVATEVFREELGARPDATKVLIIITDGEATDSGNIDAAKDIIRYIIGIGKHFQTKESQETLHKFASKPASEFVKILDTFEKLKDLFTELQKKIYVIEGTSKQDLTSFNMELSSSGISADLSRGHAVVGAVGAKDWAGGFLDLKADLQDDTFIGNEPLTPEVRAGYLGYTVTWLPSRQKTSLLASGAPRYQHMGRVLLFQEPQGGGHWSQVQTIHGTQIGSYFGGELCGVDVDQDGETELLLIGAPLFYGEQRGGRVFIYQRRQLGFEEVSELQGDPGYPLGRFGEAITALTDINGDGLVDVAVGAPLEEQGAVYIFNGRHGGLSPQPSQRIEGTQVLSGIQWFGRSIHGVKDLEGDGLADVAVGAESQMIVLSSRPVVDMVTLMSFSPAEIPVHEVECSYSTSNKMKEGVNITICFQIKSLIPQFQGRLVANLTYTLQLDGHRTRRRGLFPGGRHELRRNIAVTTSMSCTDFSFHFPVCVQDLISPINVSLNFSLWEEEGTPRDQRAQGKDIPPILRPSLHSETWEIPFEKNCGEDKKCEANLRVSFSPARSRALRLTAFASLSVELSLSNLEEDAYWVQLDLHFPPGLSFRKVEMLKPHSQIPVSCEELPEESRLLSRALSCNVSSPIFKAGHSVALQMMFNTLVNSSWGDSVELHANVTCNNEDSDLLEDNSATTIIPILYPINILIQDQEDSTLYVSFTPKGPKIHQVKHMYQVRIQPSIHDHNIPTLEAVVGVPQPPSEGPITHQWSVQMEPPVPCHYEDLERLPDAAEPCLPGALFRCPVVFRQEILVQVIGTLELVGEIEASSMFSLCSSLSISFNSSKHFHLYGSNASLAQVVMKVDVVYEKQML
T1 sequence (P05107 23-700 limits assumed): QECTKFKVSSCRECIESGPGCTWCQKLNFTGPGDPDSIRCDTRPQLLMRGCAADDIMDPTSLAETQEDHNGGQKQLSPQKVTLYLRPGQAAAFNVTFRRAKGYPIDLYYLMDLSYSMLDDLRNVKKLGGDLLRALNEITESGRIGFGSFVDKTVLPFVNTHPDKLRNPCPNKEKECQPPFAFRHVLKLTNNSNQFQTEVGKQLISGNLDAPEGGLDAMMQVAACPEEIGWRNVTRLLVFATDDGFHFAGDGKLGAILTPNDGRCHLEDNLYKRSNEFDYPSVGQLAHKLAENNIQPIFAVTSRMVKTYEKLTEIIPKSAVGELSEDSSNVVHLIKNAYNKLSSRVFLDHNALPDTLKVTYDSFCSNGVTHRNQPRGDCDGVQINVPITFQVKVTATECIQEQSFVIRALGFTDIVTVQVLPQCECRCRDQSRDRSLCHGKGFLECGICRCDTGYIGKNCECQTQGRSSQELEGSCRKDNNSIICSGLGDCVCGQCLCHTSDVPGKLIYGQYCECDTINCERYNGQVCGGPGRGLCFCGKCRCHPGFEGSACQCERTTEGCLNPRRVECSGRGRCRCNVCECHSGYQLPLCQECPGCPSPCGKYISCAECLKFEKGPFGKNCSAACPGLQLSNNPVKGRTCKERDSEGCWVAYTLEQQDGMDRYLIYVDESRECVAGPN
Procedure: The following assay was conducted to assess effect of targeted molecules on the sLFA-1/ICAM-1 ELISA and Mac-1/ICAM-1 interactions.
Plates were coated with either 50 μl/well of 2.0 ug/ml solution of sLFA-1 or Mac-1 receptor in divalent cation buffer (1 mM MnCI2, 0.14M NaCl, 20 mM HEPES pH 7.2) at 4° C. overnight. Two hundred fifty μl of blocking buffer (1% BSA in divalent cation buffer) was added to each well 1 hour at 37° C. Plates were washed 3 times with wash buffer (TBS/0.05% Tween-20/1 mM MnCl2). The compound to be tested was solubilized in DMSO. […] Fifty μl of binding buffer (0.5% BSA in divalent cation buffer)/1% DMSO and 50 μl of the solutions to be tested were added to the appropriate wells and incubated for 1 hour. Fifty μl of 5dICAM-Fc (27 ng/ml) was added to the appropriate wells and 50 μl binding buffer was added to non-specific binding wells and incubated for 2 hours and washed. One hundred μl of 1:4000 HRP-goat anti-huIgG was added to each well and incubated for 1 hour and washed. One hundred μl of 1:1 TMB solution was added to each well and developed for 20 min at room temperature. Color development was stopped by adding 100 μl H3PO4 to each well. Absorbance was measured at 450 nm.

AHA1 mRNA = experiment: Knock-down of AHA1 mRNA by 5′-sense strand modified siRNA (Branched DNA Assay); format: cell-based; settings: H1299 cells, siRNA 50 nM, DharmaFect-1 reverse transfection, 48 hours
Procedure: Assay of 5′-Sense Strand Modified siRNA for Knock-Down of AHA1 mRNA in Cellular Systems
Reference gene: GAPDH Cell line: H1299_Nut-One Plating density: 5,000 cells/well Plating format: 96-well Time from plating to treatment: 0 Control treatment: mock, untreated, control siRNA Transfection reagent: DharmaFectl
TF Reagent volume/well […] siRNA final concentration 50 nM Assay method: Day 1 manual/Day 2 Washer
Reverse transfection: H1299 cells were transfected with indicated siRNA at final concentration of 50 nM using DharmaFect-1 transfection reagent at 0.15 μl/well. Cells were then plated into 96-well plate at 5000 cells/well and incubated at 37° C. for 48 hours.
The efficacy of siRNA knock-down was measured with a Branched DNA Assay as reported by the vendor; the results of such knockdown are shown in FIG. 5. The relative cell viability was assessed by the absolute expression of GAPDH in the same well (FIG. 6).

Jurkat Cells/VCAM-1 = Jurkat Cells/VCAM-1 Adhesion Assay; format: cell-based; settings: Table 4
[1] = Table 4, read-out: LFA1 Adhesion Assay
[2] = control compounds, read-out: IC50

Compound	pIC50 (sLFA-1/ICAM-1; [1])	IC50 (sLFA-1/ICAM-1; Table 5, read-out: LFA1 Adhesion Assay (IC50 nM)) [nM]	pIC50 (sLFA-1/ICAM-1; [2])	AHA1 % KD (AHA1 mRNA) [%]	pIC50 (Jurkat Cells/VCAM-1)
Cc1cc(C(=O)NCc2cccc(Cl)c2)cc(C)c1C(=O)N[C@@H](CNC(=O)c1cccs1)C(=O)O [compound 142]	7.43	74	~7.43	–	–
O=C(NCc1cccc(O)c1)c1cc(Cl)c(C(=O)N[C@@H](CNC(=O)c2cc(O)cc(O)c2)C(=O)O)c(Cl)c1 [compound 143]	7.96	–	~7.96	–	–
Duplex-1: AHA1 siRNA duplex without targeting element: Sense-1 GGAuGAAGuGGAGAuuAGudTsdT, Antisense-1 ACuAAUCUCcACUUcAUCCdTsdT (sense GGAUGAAGUGGAGAUUAGUTT; antisense ACUAAUCUCCACUUCAUCCTT; lowercase nucleotides modified, meaning not given here, dTsdT 3' overhang)	–	–	–	98	< 6.70
